Values joined by “and” are separate entries in the source; they are usually repeats but may differ in a detail not shown here. Equal values may be shown once. Non-standard residues stand in square brackets, D forms with d. No end group written: not given here.
What was measured:
[1] = test system: STZ-induced diabetic Sprague-Dawley rats; assay: STZ diabetes model in male Sprague-Dawley rats, Example 4; type: in vivo, rat; details: 10 mg/kg s.c. q.d. 5 days a week, after peptide treatment for 2 weeks or 4 weeks, vs. STZ/Saline group
Description: The objective of this study was to explore the protective effect of SS-31 or SS-20 against Streptozotocin (STZ) induced diabetic complications and metabolic syndrome in male Sprague-Dawley rats.
Rat models of type 1 diabetes were established by administration of high-dose STZ (30 mg/kg). Rats of the same batch fed with regular chow are used as normal control. The study groups included: Group A: STZ+SS-31 10 mg/kg s.c. q.d. (M.-F.), n=11; Group B: STZ+SS-20 10 mg/kg s.c. q.d. (M.-F.), n=11; Group C: STZ+vehicle s.c. q.d. (M.-F.), n=10; Group D: NRC +vehicle s.c. q.d. (M.-F.), n=10.
The compounds were dissolved in saline. The treatment was given once a day (5 days a week) with injection site to be alternated. The concentration of SS-31 and SS-20 dosed at 10mg/kg is 5mg/ml. The treatment volume (0.2 ml/100 g for s.c.) for each test animal was adjusted according to its body weight taken on the beginning of each week. STZ was dissolved in 0.1 M citrate buffer (pH4.5) to concentration of 20 mg/mL. STZ was injected intraperitoneally.

[2] = test system: DIO C57BL/6 mice; assay: Diet-induced obesity (DIO) in C57BL/6 mice, Example 3; type: in vivo, mouse; details: for Glucose Tolerance (IPGTT), Week 5: DIO vehicle 1719.7 ± 56.8, chow vehicle 1213.6 ± 54.1; for glucose tolerance in the obese mouse model (in words): IPGTT, 1 g/kg D-glucose i.p.; for abdominal fat index / subcutaneous fat index: after 14 weeks of treatment
Description: To analyze the pharmacodynamic effects of SS-31 and SS-20 against diet-induced obesity (D10) in C57BL/6 mice, the test subjects were fed either a normal diet or a high-fat diet having the composition shown in Table 9.
After several days of acclimation, animals were weighted and randomly assigned to the following treatment groups.
Starting from the first day of treatment, animals in Groups B to I were switched to HFD. During the entire treatment period, the following activities were performed on specific days.
Dose Preparation & Administration. The treatment was given once a day (5 days a week) with injection site alternated. The concentration of SS-31 and SS-20 dosed at 3 mg/kg was 0.6 mg/ml and that of 10 mg/kg was 2 mg/ml. The treatment volume (0.05 mUl0 g for s.c. and 0.2 ml/10 g for p.o.) for each test animal was adjusted according to its body weight taken on the beginning of each week.
Blood Sample Collection. Blood samples were collected by tail snip according to the Medicilon/MPI Preclinical Research (Shanghai) LLC SOP on Blood Collection Techniques. […] Collected blood samples were set at room temperature for 1 hour to allow clotting before being centrifuged at 2,000×g for 10 min. The supernatant were collected and re-centrifuged at 2,000×g for another 10 min. to generate the serum. Part of the serum samples were used for total cholesterol (TC) analysis immediately. The rest were stored at −20° C. until being used in insulin analysis.
Serum Insulin, Triglyceride (TG) & Total Cholesterol (TC). Serum insulin levels were measured using Rat/Mouse Insulin ELISA Kit from Millipore Corporation (Catalog # EZRMI-13K, St. Charles, Mo., USA). Serum TG levels were measured by automatic biochemical analyzer. FIG. 5A is a chart illustrating the effects of peptide treatment on triglycerides in a murine model of diet-induced obesity after 14 weeks of treatment. FIG. 5B is a chart illustrating the effects of peptide treatment on total cholesterol in a murine model of diet-induced obesity after 14 weeks of treatment. FIG. 5C is a chart illustrating the effects of peptide treatment on HDL cholesterol in a murine model of diet-induced obesity after 14 weeks of treatment.
IPGTT. IPGTT was performed according to the Medicilon-MPI Preclinical Research (Shanghai) LLC SOP on Intraperitoneal (IP) Glucose Tolerance Test with slight modifications. Mice were fast overnight before the baseline glucose levels assessed in the next morning. After that, an IP injection of 1 g/kg D-glucose was given to each animal and the blood glucose levels were then measured on 15, 30, 60 and 120 minutes post the IP injection.

[3] = test system: HFD/STZ rats; assay: HFD/STZ rat model of metabolic syndrome, 10-week peptide treatment, Example 2; type: in vivo; details: for TG level before peptide treatment: baseline; for change in blood glucose during 10-week peptide treatment / change in body weight during 10-week peptide treatment: SS-31 10, 3, 1 mg/kg or SS-20 10, 3 mg/kg s.c. once daily 5 days a week
Description: This study was initiated to investigate the effects of SS-31 and SS-20 in a model of metabolic syndrome over a 10 week period. Rats were fed with a high-fat diet for 6 weeks and then administered a single dose of STZ (30 mg/kg). The rats were maintained on a HFD until 14 weeks after STZ administration. Control rats fed normal rat chow (NRC) for 6 weeks were then administered citrate buffer without STZ. After 5 months, diabetic rats were treated with SS-31 (10 mg/kg, 3 mg/kg, 1 mg/kg s.c. once daily), SS-20 (10 mg/kg, 3 mg/kg s.c. once daily) or vehicle (saline) 5 days a week for 10 weeks. The study groups were as follows:
Group A: HFD/STZ+SS-31 10 mg/kg s.c. q.d. (Mon-Fri.), n=12;
Group B: HFD/STZ+SS-31 3 mg/kg s.c. q.d. (Mon-Fri.), n=12;
Group C: HFD/STZ+SS-31 1 mg/kg s.c. q.d. (Mon-Fri.), n=10;
Group D: HFD/STZ+SS-20 10 mg/kg s.c. q.d. (Mon-Fri.), n=10;
Group E: HFD/STZ+SS-20 3 mg/kg s.c. q.d. (Mon-Fri.), n=10;
Group F: HFD/STZ+vehicle s.c. q.d. (Mon-Fri.), n=10;
Group G: NRC +vehicle s.c. q.d. (Mon-Fri.), n=10.
HFD feeding for 6 weeks produced obvious body weight gain (452.9±3.8g in HFD group vs. 425.5±7.1 g, P<0.01) and STZ administration increased blood glucose (26.5±0.5 mmol/L in HFD/STZ rats vs. 9.8±0.5 mmol/L in NRC rats, P<0.001) and hyperlipidemia (P<0.01), indicating a metabolic syndrome-like disorder in these test subjects.

[4] = test system: HFD/STZ SD rats; assay: Rat model of metabolic syndrome (HFD + low-dose STZ), Example 1; type: in vivo; details: for body weight increase over the 10-week treatment period: 10 mg/kg s.c. q.d. 5 days a week, by the end of 10th week, HFD/STZ control 3.6%, NRC 23.3%; for effect on blood glucose: 10 mg/kg s.c., week 4 post peptide treatment, vs. HFD/STZ vehicle rats
Description: The effects of aromatic-cationic peptides in treating a subject suffering from metabolic syndrome were investigated in a Sprague-Dawley rat model over […]. The example describes the results of such experiments.
In vivo models. A rat model of metabolic syndrome was established by combination of 6-week HFD and low-dose STZ (40 mg/kg) injection in SD rats. Rats of the same batch fed with normal chow (NRC) were used as a control.
Study groups. Group A: NRC+PBS s.c. q.d. (Mon-Fri)*, n=5; Group B: HFD +STZ+PBS s.c. q.d. (Mon-Fri), n=8; Group C:HFD+STZ+SS-31 10 mg/kg s.c. q.d. (Mon-Fri), n=8; Group D: HFD+STZ+SS-20 10 mg/kg s.c. q.d. (Mon-Fri), n=8.
Preparation and administration of test compounds. SS-31 or SS-20 was dissolved in 0.01 M PBS (pH 7.0). The 10-week treatment was given once a day (5 days a week) with s.c. injection site alternated. The concentration of SS-31 and SS-20 was 5.0 mg/mL. The injection volume (0.2 mL/100 g) for each test animal was adjusted according to body weight taken on the beginning of each week. STZ was dissolved in 0.1 M citrate buffer (pH 4.5) to concentration of 20 mg/mL. STZ is injected intraperitoneally.
Blood glucose. Blood glucose was tested by ACCU-CHEK® Advantage™ blood glucose meter and test strips from Roche diagnostics GmbH (Mannheim, Germany).
Blood sample handling. Blood samples were collected by tail snip. […] Collected blood samples were set at room temperature for 30 min to allow clotting before being centrifuged at 1,200×g for 10 min. The supernatant were collected and re-centrifuged at 1,200×g for another 5 min to generate the serum. Serum samples were aliquotted and stored at −20° C. until being used in analysis.
Statistics: Statistic analysis oft-test and one-way ANOVA was performed by SPSS (Statistical Package for Social Science) analysis software.

[5] = 10 mg/kg s.c. q.d. 5 days a week

Row | Compound | TG level [1] | Glucose Tolerance (IPGTT), Week 5 ([2]; 3 mg/kg s.c.) | Glucose Tolerance (IPGTT), Week 5 ([2]; 10 mg/kg s.c.) | glucose tolerance in the obese mouse model (in words) [2] | abdominal fat index [2] | subcutaneous fat index [2] | TG level before peptide treatment ([3]; 3 mg/kg group, 3 mg/kg) | TG level after 10 weeks' peptide treatment ([3]; 3 mg/kg s.c. q.d. 5 days a week, 3 mg/kg) | TG level before peptide treatment ([3]; 10 mg/kg group) [mM] | TG level after 10 weeks' peptide treatment [3, 5] [mM] | change in blood glucose during 10-week peptide treatment [3] | change in body weight during 10-week peptide treatment [3] | body weight increase over the 10-week treatment period [4] [%] | effect on blood glucose [4] | Glucose Tolerance (IPGTT), Week 5 ([2]; 2 mg/kg p.o.) | TG level before peptide treatment ([3]; 3 mg/kg group) [mM] | TG level after 10 weeks' peptide treatment ([3]; 3 mg/kg s.c. q.d. 5 days a week) [mM]
1 | F[dR]FK-NH2 [SS-20] | increased less than STZ/Saline group | 1534.1 ± 53.3 | 1494.5 ± 54.4 | significantly improve glucose tolerance | capable of reducing | capable of reducing | 4.66 ± 1.40 mM and 3.90 ± 0.65 mM | 2.43 ± 0.47 mM and 3.70 ± 1.16 mM | 4.17 ± 1.02 | 1.97 ± 0.46 | no obvious changes | no obvious changes | 9.0 | down-regulation effect on blood glucose |  |  | 
2 | CN(CCOc1ccc(CC2SC(=O)NC2=O)cc1)c1ccccn1 (centres unmarked) [Rosi, Rosiglitazone, reference compound] |  |  |  |  |  |  |  |  |  |  |  |  |  |  | 1487.5 ± 44.2 |  | 
3 | D-Arg-2′,6′-Dmt-Lys-Phe-NH2 [SS-31] | increased less than STZ/Saline group | 1460.6 ± 64.1 | 1584.3 ± 78.3 | significantly improve glucose tolerance | capable of reducing | capable of reducing |  |  | 3.77 ± 0.38 | 1.75 ± 0.33 | no obvious changes | no obvious changes | 16.3 | down-regulation effect on blood glucose |  | 4.17 ± 0.88 | 2.46 ± 0.52

— patent US20190209641A1, “METHODS FOR PREVENTING OR TREATING METABOLIC SYNDROME” (Cornell University, priority 2009, published 2019)
